According to PubChem BioAssay AID588782 (Southern Research Specialized Biocontainment Screening …, 2011):
Values joined by “and” are separate entries in the source; they are usually repeats but may differ in a detail not shown here. Equal entries are not always repeated. Active and inactive are the calls of the source.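 The calls were made as follows: active = virus-caused cell damage raised over twofold versus untreated cells in three repeats, without toxicity at overlapping doses; inactive = the rest.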

Tested on: PC3 cells, HSV G47-delta CPE, CellTiter-Glo, 96 h
Test: augmentation of HSV G47-delta CPE in PC3 cells – cell-based, CellTiter-Glo, secondary, confirmation (AID 588782);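 as to CPE increase: percent rise in virus-caused cell damage over infected cultures given no drug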
Conditions: for outcome / CPE increase: at 10 µM; for CC50: measured here: PC3 cytotoxicity; for CPE increase: stronger effect = higher value

SMILES | outcome | CC50 | CPE increase
COc1ccc(C(=O)OCCCN2CCCC2)cc1 | inactive | > 100 µM | 
COc1cc(C(=O)OCCCN2CCCN(Cc3ccccc3)CC2)cc(OC)c1OC | inactive | > 100 µM | 
COc1cc(OC)cc(C(=O)OCCCNCCNCCCOC(=O)c2cc(OC)cc(OC)c2)c1 |  | 32.1 µM | 15.8% (inactive)
O=C(NCCCN1CCN(CCCNC(=O)c2ccc3c(c2)OCO3)CC1)c1ccc2c(c1)OCO2 |  | > 100 µM | 14.4% (inactive)
COc1cc(OC)cc(C(=O)OCCN2CCN(CCOC(=O)c3cc(OC)cc(OC)c3)CC2)c1 | inactive | > 100 µM | 
COc1ccc(C(=O)OCCN2CCN(CCOC(=O)c3ccc(OC)cc3)CC2)cc1 | inactive | > 100 µM | 
CNCCN(C)CCCOC(=O)c1ccc(OC)cc1 | inactive | > 100 µM | 
COc1cc(C(=O)OCCCN2CCN(C)CC2)cc(OC)c1OC | inactive | > 100 µM | 
COc1ccc(C(=O)OCCCN2CCN(C)CC2)cc1 | inactive | > 100 µM | 
O=C(OCCCN1CCCN(CCCOC(=O)c2ccccc2)CC1)c1ccccc1 | inactive | > 100 µM | 
COc1cc(C(=O)OCCN2CCCC2)cc(OC)c1OC | inactive | > 100 µM | 
O=C(OCCCN1CCN(CCCOC(=O)c2ccc(F)cc2)CC1)c1ccc(F)cc1 | inactive | > 100 µM | 
COc1cc(C(=O)OCCCN2CCCNCC2)cc(OC)c1OC | inactive | > 100 µM | 
COc1cc(OC)cc(C(=O)OCCN2CCCN(C)CC2)c1 | inactive | > 100 µM | 
O=C(/C=C/c1ccc2c(c1)OCO2)N1CCCN(C(=O)/C=C/c2ccc3c(c2)OCO3)CC1 | inactive | > 100 µM | 
COc1cc(C(=O)OCCCN2CCCN(C(=O)c3ccccc3)CC2)cc(OC)c1OC | inactive | > 100 µM | 
COc1cc(C(=O)N2CCCN(C(=O)c3cc(OC)c(OC)c(OC)c3)CC2)cc(OC)c1OC | inactive | > 100 µM | 
COc1ccc(C(=O)OCCN2CCCN(C)CC2)cc1 |  | > 100 µM | 27.1% (inactive)
CNCCN(C)CCCOC(=O)c1ccc(F)cc1 | inactive | > 100 µM | 
COc1ccc(C(=O)OCCN2CCCN(Cc3ccccc3)CC2)cc1 | inactive | > 100 µM | 
CN1CCCN(CCCOC(=O)c2ccccc2)CC1 | inactive | > 100 µM | 
COc1cc(C(=O)OCCN2CCN(C)CC2)cc(OC)c1OC | inactive | > 100 µM | 
COc1cc(OC)cc(C(=O)OCCN2CCOCC2)c1 | inactive | > 100 µM | 
COc1cccc(C(=O)NCCCN2CCN(CCCNC(=O)c3cccc(OC)c3)CC2)c1 | inactive | > 100 µM | 
COc1cc(-c2cn(CCCN3CCCN(CCCn4cc(-c5cc(OC)c(OC)c(OC)c5)nn4)CC3)nn2)cc(OC)c1OC | inactive | > 100 µM | 

SMILES | outcome | CC50 | CPE increase
COc1cc(C(=O)OCCCN2CCCN(CCCOC(=O)c3cc(OC)c(OC)c(OC)c3)CC2)cc(OC)c1OC | inactive | > 100 µM | 
COc1cc(C(=O)NCCCN2CCCN(CCCNC(=O)c3cc(OC)c(OC)c(OC)c3)CC2)cc(OC)c1OC |  | > 100 µM | 16% (inactive)
COc1ccc(C(=O)OCCCN2CCCN(C)CC2)cc1 | inactive | > 100 µM | 
COc1cc(C(=O)OCCCN2CCOCC2)cc(OC)c1OC | inactive | > 100 µM | 
COc1ccc(C(=O)OCCCN2CCCN(CCCOC(=O)c3ccc(OC)cc3)CC2)cc1 | inactive | > 93 µM | 
COc1cc(CN2CCCN(Cc3cc(OC)c(OC)c(OC)c3)CC2)cc(OC)c1OC | inactive | > 100 µM | 
CN1CCN(CCCOC(=O)c2ccccc2)CC1 | inactive | > 100 µM | 
COc1ccc(C(=O)NCCCN2CCCN(C)CC2)cc1 | inactive | > 100 µM | 
CN1CCCN(CCCOC(=O)c2ccc(F)cc2)CC1 | inactive | > 100 µM | 
COc1cc(OC)cc(C(=O)OCCN2CCN(C)CC2)c1 | inactive | > 100 µM | 
O=C(OCCCN1CCCN(CCCOC(=O)c2ccc(F)cc2)CC1)c1ccc(F)cc1 | inactive | 66.9 µM | 
O=C(OCCCN1CCOCC1)c1ccc(F)cc1 | inactive | > 100 µM | 
COc1cc(C(=O)OCCCN(C)CCN(C)CCCOC(=O)c2cc(OC)c(OC)c(OC)c2)cc(OC)c1OC | inactive | > 100 µM | 
COc1ccc(C(=O)OCCN2CCCN(CCOC(=O)c3ccc(OC)cc3)CC2)cc1 | inactive | > 100 µM | 
O=C(OCCCN1CCN(CCCOC(=O)c2ccccc2)CC1)c1ccccc1 | inactive | > 100 µM | 
COc1cc(C(=O)OCCN2CCOCC2)cc(OC)c1OC | inactive | > 100 µM | 
COc1ccc(C(=O)OCCCN2CCOCC2)cc1 |  | > 100 µM | 16.9% (inactive)
O=C(CCN1CCCN(CCC(=O)Nc2ccccc2)CC1)Nc1ccccc1 | inactive | > 100 µM | 
CN1CCN(CCCOC(=O)c2ccc(F)cc2)CC1 | inactive | > 100 µM | 
COc1cc(OC)cc(C(=O)OCCN2CCCC2)c1 | inactive | > 100 µM | 
COc1ccc(N2C(=O)CC(N3CCCN(C4CC(=O)N(c5ccc(OC)cc5)C4=O)CC3)C2=O)cc1 (configuration not stated) | inactive | > 100 µM | 
COc1ccc(C(=O)OCCN2CCN(C)CC2)cc1 | inactive | > 100 µM | 
CC(=O)NCCCN1CCCN(CCCNC(C)=O)CC1 | inactive | > 100 µM | 
COc1cc(C(=O)OCCCN2CCCN(CCOC(=O)c3cc(OC)c(OC)c(OC)c3)CC2)cc(OC)c1OC | inactive | > 100 µM | 
COc1ccc(C(=O)OCCCNCCNCCCOC(=O)c2ccc(OC)cc2)cc1 | inactive | > 93 µM and 21.7 µM | 19.8% (inactive)

SMILES | outcome | CC50 | CPE increase
COc1cc(C(=O)OCCN2CCCN(Cc3ccccc3)CC2)cc(OC)c1OC | inactive | > 100 µM | 
COc1cc(C(=O)OCCCN2CCCN(C(C)=O)CC2)cc(OC)c1OC | inactive | > 100 µM | 
COc1cc(C(=O)OCCCN2CCCN(C)CC2)cc(OC)c1OC | inactive | > 100 µM | 
COc1cc(OC)cc(C(=O)OCCCN2CCCN(Cc3ccccc3)CC2)c1 | inactive | > 100 µM | 
COc1cc(COCCCN2CCCN(CCCOCc3cc(OC)c(OC)c(OC)c3)CC2)cc(OC)c1OC | inactive | > 100 µM | 
COc1cc(C(=O)OCCN2CCN(CCOC(=O)c3cc(OC)c(OC)c(OC)c3)CC2)cc(OC)c1OC | inactive | > 100 µM | 
CNCCN(C)CCOC(=O)c1cc(OC)cc(OC)c1 | inactive | > 100 µM | 
O=C(CNc1ccc(F)cc1)CN1CCCN(CC(=O)Nc2ccc(F)cc2)CC1 | inactive | > 100 µM | 
NCCCN1CCCN(CCCN)CC1 | inactive | > 100 µM | 
COc1cc(OC)cc(C(=O)OCCCN2CCN(C)CC2)c1 | inactive | > 100 µM | 
COc1cc(NC(=O)Nc2cc(OC)c(OC)c(OC)c2)cc(OC)c1OC | inactive | > 100 µM | 
COc1ccc(C(=O)OCCCN2CCN(CCCOC(=O)c3ccc(OC)cc3)CC2)cc1 | inactive | > 100 µM | 
COc1cc(C(=O)OCCCN2CCN(CCCOC(=O)c3cc(OC)c(OC)c(OC)c3)CC2)cc(OC)c1OC | inactive | > 100 µM | 
CNCCN(C)CCOC(=O)c1cc(OC)c(OC)c(OC)c1 | inactive | > 100 µM | 
COc1cc(C(=O)OCCN2CCCN(CCOC(=O)c3cc(OC)c(OC)c(OC)c3)CC2)cc(OC)c1OC | inactive | > 100 µM | 
COc1cc(C(=O)OCCCN2CCCN(C(=O)OC(C)(C)C)CC2)cc(OC)c1OC | inactive | > 100 µM | 
COc1cc(C(=O)OCCCN2CCCC2)cc(OC)c1OC | inactive | > 100 µM | 
COc1cc(OC)cc(C(=O)OCCCN2CCCN(C)CC2)c1 | inactive | > 100 µM | 
COc1cc(OC)cc(C(=O)OCCCN2CCN(CCCOC(=O)c3cc(OC)cc(OC)c3)CC2)c1 | inactive | > 94 µM | 
COc1cc(C(=O)OCCN2CCCN(C)CC2)cc(OC)c1OC | inactive | > 100 µM | 
COc1cc(NC(=O)N2CCCN(C(=O)Nc3cc(OC)c(OC)c(OC)c3)CC2)cc(OC)c1OC |  | > 100 µM | 24.5% (inactive)
COc1cc(OC)cc(C(=O)OCCN2CCCN(CCOC(=O)c3cc(OC)cc(OC)c3)CC2)c1 | inactive | > 100 µM | 
O=C(CN1CCCN(CC(=O)CN2C(=O)c3ccccc3C2=O)CC1)CN1C(=O)c2ccccc2C1=O | inactive | > 100 µM | 
